Consider eight compounds from ChEMBL document CHEMBL1154618, “Agonist vs antagonist behavior of delta opioid peptides containing novel phenylalanine analogues in place of Tyr(1)” (J Med Chem, 2009).

For assay [1], the target named is Delta-type opioid receptor (Rattus norvegicus, UniProt P33533). Nature of the assay: Displacement of [3H]DSLET from delta opioid receptor in rat brain membrane. The class given is cell membranes. On the technique in general: In a radioligand displacement assay an active substance lowers the binding of a labelled ligand.
Chain of Delta-type opioid receptor (P33533 whole entry): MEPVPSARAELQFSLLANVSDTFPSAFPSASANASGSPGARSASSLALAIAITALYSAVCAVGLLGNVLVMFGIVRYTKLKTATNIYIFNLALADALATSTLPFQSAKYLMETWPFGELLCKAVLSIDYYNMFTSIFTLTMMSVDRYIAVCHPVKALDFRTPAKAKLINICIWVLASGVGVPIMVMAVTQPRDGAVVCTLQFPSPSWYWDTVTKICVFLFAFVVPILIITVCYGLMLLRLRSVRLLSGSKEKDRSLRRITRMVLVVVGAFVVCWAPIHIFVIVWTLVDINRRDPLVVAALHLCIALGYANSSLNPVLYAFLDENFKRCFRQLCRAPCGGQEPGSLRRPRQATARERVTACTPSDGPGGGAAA
Assay [2] deals with Kappa-type opioid receptor (Cavia porcellus, UniProt P41144). Nature of the assay: Displacement of [3H]U69-593 from kappa opioid receptor in guinea pig brain membrane. The class given is cell membranes.
Chain of Kappa-type opioid receptor (P41144 whole entry): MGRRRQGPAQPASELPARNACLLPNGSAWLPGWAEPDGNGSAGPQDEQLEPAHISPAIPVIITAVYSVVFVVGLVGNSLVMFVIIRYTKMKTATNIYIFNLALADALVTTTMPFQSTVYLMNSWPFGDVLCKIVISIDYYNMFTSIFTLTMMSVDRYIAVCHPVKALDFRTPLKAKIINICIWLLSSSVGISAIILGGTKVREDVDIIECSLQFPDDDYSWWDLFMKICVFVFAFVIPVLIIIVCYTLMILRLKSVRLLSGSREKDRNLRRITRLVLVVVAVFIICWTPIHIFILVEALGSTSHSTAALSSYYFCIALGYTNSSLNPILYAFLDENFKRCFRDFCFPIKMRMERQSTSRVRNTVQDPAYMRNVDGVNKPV
Assay [3] deals with Delta-type opioid receptor (Mus musculus) (UniProt P32300). Put plainly: Antagonist activity at delta opioid receptor in mouse vas deferens assessed as inhibition of DPDPE-stimulated muscle contraction. The class given is functional, tissue-based.
Chain of Delta-type opioid receptor (Mus musculus) (P32300 whole entry): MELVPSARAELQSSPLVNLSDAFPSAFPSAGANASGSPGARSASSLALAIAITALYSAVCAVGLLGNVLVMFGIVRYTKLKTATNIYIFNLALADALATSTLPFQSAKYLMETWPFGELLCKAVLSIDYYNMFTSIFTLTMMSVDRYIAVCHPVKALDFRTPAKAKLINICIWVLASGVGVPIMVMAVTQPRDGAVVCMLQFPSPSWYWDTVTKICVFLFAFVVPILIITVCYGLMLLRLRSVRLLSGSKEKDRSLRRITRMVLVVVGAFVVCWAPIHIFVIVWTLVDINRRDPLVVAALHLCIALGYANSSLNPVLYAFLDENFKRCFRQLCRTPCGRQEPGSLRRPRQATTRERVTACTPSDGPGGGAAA
Assay [4] has as its target Mu-type opioid receptor (Cavia porcellus, UniProt P97266). Put plainly: Agonist activity at mu opioid receptor in guinea pig ileum assessed as effect on muscle contraction. The class given is functional, tissue-based.
In assay [5] the target is Mu-type opioid receptor (Rattus norvegicus, UniProt P33535). Put plainly: Displacement of [3H]DAMGO from mu opioid receptor in rat brain membrane. It is filed as cell membranes.
Chain of Mu-type opioid receptor (Rattus norvegicus, UniProt P33535) (P33535 whole entry): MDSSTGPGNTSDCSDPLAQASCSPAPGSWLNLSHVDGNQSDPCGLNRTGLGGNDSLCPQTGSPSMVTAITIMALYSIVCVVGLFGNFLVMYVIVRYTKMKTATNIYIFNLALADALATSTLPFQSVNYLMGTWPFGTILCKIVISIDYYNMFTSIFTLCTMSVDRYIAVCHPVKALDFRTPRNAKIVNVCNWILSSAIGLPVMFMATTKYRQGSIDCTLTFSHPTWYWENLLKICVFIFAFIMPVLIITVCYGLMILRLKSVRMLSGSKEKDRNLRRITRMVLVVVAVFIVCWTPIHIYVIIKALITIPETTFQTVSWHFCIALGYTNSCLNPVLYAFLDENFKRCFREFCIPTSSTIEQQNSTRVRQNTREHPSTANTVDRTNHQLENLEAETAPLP
The target in assay [6] is Mu-type opioid receptor (Cavia porcellus) (UniProt P97266). Nature of the assay: Antagonist activity at mu opioid receptor in guinea pig ileum assessed as inhibition of […]. It is filed as functional, tissue-based.
Chain of Mu-type opioid receptor (Cavia porcellus) (P97266 whole entry): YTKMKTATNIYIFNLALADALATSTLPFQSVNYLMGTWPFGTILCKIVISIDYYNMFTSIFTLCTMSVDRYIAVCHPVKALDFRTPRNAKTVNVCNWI

Activity calls are given as the source filed them. The calls are words filed in the database; no cut-off is given here. Non-standard residues stand in square brackets, D forms with d. Residues, ends and D or L forms follow the SMILES beside them. Phe(2,6-Me2,4-CONH2) = Cc1cc(C(N)=O)cc(C)c1C[C@H](N)C(=O)O; Dmt = Cc1cc(O)cc(C)c1C[C@H](N)C(=O)O; Tic = O=C(O)[C@@H]1Cc2ccccc2CN1

Chain of Mu-type opioid receptor (Cavia porcellus, UniProt P97266) (P97266 whole entry): as above

Take `Cc1cc(C(N)=O)cc(C)c1C[C@H](N)C(=O)N1Cc2ccccc2C[C@H]1C(=O)N[C@@H](Cc1ccccc1)C(=O)N[C@@H](Cc1ccccc1)C(=O)O` (H-[Phe(2,6-Me2,4-CONH2)][Tic]FF-OH): the Ki in assay [1] was 0.501 nM; in assay [2] it was above 1000 nM. Moreover, in assay [3], the Ke was 0.627 nM.

With `Cc1cc(C(=O)NCCc2ccc(-c3ccccc3)cc2)cc(C)c1C[C@H](N)C(=O)N1Cc2ccccc2C[C@H]1C(=O)O`, the Ke in assay [3] is 1.76 nM.

In assay [2], `Cc1cc(O)cc(C)c1C[C@H](N)C(=O)N1Cc2ccccc2C[C@H]1C(=O)N[C@@H](Cc1ccccc1)C(=O)N[C@@H](Cc1ccccc1)C(=O)O` (H-[Dmt][Tic]FF-OH) gave a Ki above 1000 nM. Besides, the Ke in assay [3] is 0.196 nM. Further, the IC50 on Mu-type opioid receptor [4] (read-out: IC50) was 769 nM.

On to `N[C@@H](Cc1ccc(O)cc1)C(=O)N1Cc2ccccc2C[C@H]1C(=O)O` (H-Tyr-[Tic]-OH), for which the Ki in assay [1] is 242 nM; on Mu-type opioid receptor [5] it was above 1000 nM; in assay [2], above 10000 nM. Besides, the Ke in assay [3] came out at 263 nM. Also, on Mu-type opioid receptor [4], the IC50 entry is given as “Not Active”. Further, the Ke result in assay [6] is “inactive”.

In the case of `N[C@@H](Cc1ccc(C(=O)NCCc2ccc(-c3ccccc3)cc2)cc1)C(=O)N1Cc2ccccc2C[C@H]1C(=O)O`, the Ke in assay [3] turned out to be 17.8 nM.

As for `Cc1cc(O)cc(C)c1C[C@H](N)C(=O)N1Cc2ccccc2C[C@H]1C(=O)O` (H-[Dmt]-[Tic]-OH), the values for the Ki (on Mu-type opioid receptor [5]; in assay [2]) were 1360 nM and above 1000 nM, respectively. Further, at Mu-type opioid receptor [4], the IC50 result is reported as “Not Active”. The Ke result in assay [6] was “inactive”.

Compound `N[C@@H](Cc1ccc(O)cc1)C(=O)N1Cc2ccccc2C[C@H]1C(=O)N[C@@H](Cc1ccccc1)C(=O)N[C@@H](Cc1ccccc1)C(=O)O` (H-Y[Tic]FF-OH) yielded a Ki in assay [2] above 1000 nM. Besides, the IC50 at Mu-type opioid receptor [4] (read-out: IC50) was above 10000 nM.

For the compound `N[C@@H](Cc1ccc(C(=O)NCCc2ccc(-c3ccccc3)cc2)cc1)C(=O)N1Cc2ccccc2C[C@H]1C(=O)N[C@@H](Cc1ccccc1)C(=O)O`, in assay [3], the Ke turned out to be 18.7 nM.

By Ki is commonly meant the dissociation constant of the complex between target and ligand, obtained from inhibition or displacement. Read a low Ki as higher affinity. By IC50 is commonly meant the concentration needed to halve the response being measured.
